From the SangsterLogP compilation come the findings set out here.

As for `Cc1c(Cl)cccc1Nc1ccccc1C(=O)O`, the logP was 5.17.
With `CC(=O)c1cccc(OCC(=O)O)c1` the figure was 0.98.
`CNC(=O)Oc1ccc(F)cc1` yielded a logP of 1.28.
Next, `CN(C)CCN1C(=O)c2ccccc2N(C)c2ccccc21`: 2.5; `Nc1ccc(C(=O)O)cc1Br`: 1.4; `CCCCCO`: 1.51.
`O=C(O)c1ccc(O)cc1O` showed a logP of 1.63.
Compound `CN1C(=O)CC(=O)N(c2ccccc2)c2cc(Cl)ccc21` registered a logP of 2.12.
For `CN`, the logP was -0.57.
With `CCCC(CO)n1cnc2c(N)ncnc21` (configuration not stated), the logP is 0.66.
Turning to `O=C(O)c1ccc(I)cc1`, the logP is 3.02.
With `O=NN(CCCl)C(=O)NC1CCCCC1` the figure was 2.83; with `CC(C)c1nnc(N2CCOCC2)n(N)c1=O`, 0.49; with `c1cn[nH]c1`, 0.26.
Next, `CCCCNc1ccc(C(=O)OCCN(C)C)cc1`: 3.51.
For `COc1ccc2c(c1)c(CC(=O)O)c(C)n2C(=O)c1ccc(Cl)cc1`, the lipophilicity (logP) turned out to be 4.27.
With `NS(=O)(=O)c1ccc(Br)cc1` the figure was 1.36; with `COC1=CC(=O)C[C@@H](C)[C@]12Oc1c(Cl)c(OC)cc(OC)c1C2=O`, 2.18; with `CS(=O)(=O)c1ccccc1`, 0.5.
`O=[N+]([O-])c1cncn1CCN1CCOCC1` displayed a log partition coefficient (logP) of 0.07.
For the compound `Cc1cccc(OCCN(C)C)c1`, the lipophilicity (logP) was 2.05.
Next, `Cc1cccc(C)c1`: 3.2; `CCCCCCC(C)=O`: 2.37.
With `CNC(=O)Oc1ccc(C)cc1` the figure was 1.66; with `Cc1ccc(N(C)C)cc1`, 2.81.
With `Cc1ccc2cccc(C)c2c1` the figure was 4.44; with `CCCCOCCO`, 0.83.
With `C1CCCC1`, the logP is 3.
For the compound `c1ccc(-c2ccccc2)cc1`, the logP was 3.98.
With `OCC(Cl)(Cl)Cl` the figure was 1.42; with `CN1C(=O)NC(=O)C(C)(C2=CCCCC2)C1=O` (configuration not stated), 1.98; with `Cc1cn([C@H]2C=C[C@@H](CO)O2)c(=O)[nH]c1=O`, -0.72.
Next, `Cc1ccc(C)cc1`: 3.15; `COc1cccc(C(=O)O)c1`: 2.02.
Consider `CSc1nnc(C)c(=O)n1N`, for which the logP was -0.16.
With `Nc1ccccc1O` the figure was 0.62.
For `Cc1ccc(CC(=O)O)cc1`, the logP is 1.86.
Next, `O=C1[C@H]2CC=CC[C@H]2C(=O)N1SC(Cl)(Cl)Cl`: 2.8; `CCCCCCCC(C)=O`: 3.14; `O=[N+]([O-])c1cc(Br)c(O)c(Br)c1`: 3.57.
With `O=[N+]([O-])c1cccc(O)c1` the figure was 2; with `O=C(O)Cc1ccc([N+](=O)[O-])cc1`, 1.39.
On to `OCc1ccc(O)cc1`, for which the logP came out at 0.25.
With `CCOc1cccc(OC(=O)NC)c1` the figure was 1.75; with `Nc1ccc2ncccc2c1`, 1.28.
With `CC(C)(c1ccc(O)cc1)c1ccc(O)cc1`, the logP is 3.32.
With `COc1cc(C(=O)NN)ccn1` the figure was -0.1; with `Cc1ccc(Cl)cc1`, 3.33.
`CC1(C)S[C@@H]2[C@H](NC(=O)COc3ccccc3)C(=O)N2[C@H]1C(=O)O` gave a logP of 2.09.
With `CCCCCOC(N)=O` the figure was 1.35.
Next, `CCCSc1nnc(C(C)C)c(=O)n1N`: 2.12; `CCCC[N+](=O)[O-]`: 1.47; `N#Cc1ccccc1`: 1.56.
Take `Clc1cccc(-c2ccccc2)c1`: the logP was 4.58.
With `Nc1nc(S)c2nc[nH]c2n1` the figure was -0.07; with `O=C(O)CCCCCCCC(=O)O`, 1.57.
In turn, `CC(C)CN` returned a logP of 0.73.
With `COC(=O)C(C#N)=NNc1ccc(Cl)c(C(F)F)c1` the figure was 3.8.
With `Nc1ccccn1` the figure was 0.48.
With `COP(=O)(OC)OC` the figure was -0.65.
Take `CNS(=O)(=O)c1ccc(N)cc1`: the logP is -0.01.
With `CCCCCl` the figure was 2.64; with `c1ccc2[nH]cnc2c1`, 1.32.
With `Cc1cc2ccccc2[nH]1` the figure was 2.53; with `CCC1(c2ccccc2)C(=O)NC(=O)NC1=O`, 1.47.
Next, `N#Cc1cccc(OCC(=O)O)c1`: 0.95; `CC(=O)Nc1ccccc1`: 1.16; `Cn1cccc1`: 1.21.
Take `NNC(=O)c1ccncc1`: the logP was -0.7.
The compound `CSc1nnc(C(C)C)c(=O)n1N` displayed a logP of 1.01.
As to `CNCC(O)c1ccc(O)c(O)c1` (configuration not stated), the logP is -1.37.
With `O=C1NC(=O)C(c2ccccc2)(c2ccccc2)C(=O)N1` the figure was 1.96; with `Cc1cn([C@H]2CC[C@@H](CO)O2)c(=O)[nH]c1=O`, -0.6; with `N#Cc1ccc([N+](=O)[O-])cc1`, 1.19.
`Cc1cc([N+](=O)[O-])c2ccccc2[n+]1[O-]` came in with a logP of 1.25.
For `Oc1cccc2cccnc12`, the logP turned out to be 2.02.
With `C=CCOc1ccccc1OCC(O)CNC(C)C` (configuration not stated) the figure was 2.1; with `ClC(Cl)(Cl)Cl`, 2.83; with `NC(=O)CCCn1nnc2ccccc21`, 0.37.
With `c1ccc2c(c1)[nH]c1ccccc12` the figure was 3.72; with `O=C(O)c1ccc(N=C=S)cc1`, 3.52.
Next, `Cc1ccc(C)c(C)c1`: 3.63.
For the compound `Nc1ccc(S(=O)(=O)c2ccc(N)cc2)cc1`, the logP came to 0.97.
Compound `O=NN1CCCCC1` had a logP of 0.36.
Regarding `Nc1ncnc2c1ncn2[C@H]1CC[C@@H](CO)O1`, the logP was -0.25.
Compound `Nc1ccc(Cl)cc1` came in with a logP of 1.83.
For the compound `Brc1ccccc1Br`, the logP came to 3.64.
For `Oc1c(Br)cc(Br)c(O)c1Br`, the logP was determined as 4.37.
Take `COc1cccc(O)c1`: the logP was 1.34.
Next, `CC(=O)c1ccncc1`: 0.48; `COc1ccc(N)cc1`: 0.95.
With `CC(C)=O` the figure was -0.24.
Next, `CCOC(C)OCC`: 0.84; `Cc1ccc2cccc(O)c2n1`: 2.33.
In the case of `Cn1cnc2c1c(=O)[nH]c(=O)n2C`, the logP was -0.78.
`N#CCc1ccccc1` returned a logP of 1.56.
`c1ccc(-c2ccncc2)cc1` gave a logP of 2.59.
In the case of `CC1=C(C(=O)Nc2ccccc2)SCCO1`, the logP was determined as 2.14.
With `Cc1ccc2c(c1)c([N+](=O)[O-])cc[n+]2[O-]` the figure was 1.43; with `Cc1ccc2[nH]ccc2c1`, 2.68.
For the compound `CCCCc1ccc(S(N)(=O)=O)cc1`, the logP amounted to 2.45.
Next, `COc1ccc(O)cc1`: 1.58; `COC`: 0.1.
Next, `COc1ccc(NC(C)=O)cc1`: 1.03; `FCF`: 0.2; `O=C(O)Cc1ccc(I)cc1`: 2.64.
`CCOC(=O)C(C#N)=NNc1ccc(Cl)c(Cl)c1` registered a logP of 4.66.
Consider `C1CNCCN1`, for which the lipophilicity (logP) is -1.5.
In the case of `c1ccc2c(c1)ccc1ccccc12`, the logP is 4.46.
Compound `CC(C)CO` yielded a logP of 0.76.
With `Oc1ccccn1`, the logP is -0.58.
Next, `CN1C(C(=O)Nc2ccccn2)=C(O)c2ccccc2S1(=O)=O`: 3.06; `O=C(O)Cc1ccc(F)cc1`: 1.55; `O=C1C=C(Cl)C(=O)c2ccccc21`: 2.29.
As for `O=C(O)c1cccc(Br)c1`, the log partition coefficient (logP) came to 2.87.
In the case of `CCc1ccccc1O`, the logP was 2.47.
With `O=CO` the figure was -0.54.
Next, `O=C(O)c1ccc(O)cc1`: 1.58; `Brc1nc(Br)c(Br)[nH]1`: 1.96.
With `O=C(/C=C/c1ccccc1)c1ccccc1` the figure was 3.08; with `COC(=O)[C@H]1[C@@H](OC(=O)c2ccccc2)C[C@@H]2CC[C@H]1N2C`, 2.3.
`NC1=C(Cl)C(=O)c2ccccc2C1=O`: the logP stood at 2.12.
With `C=CCNCC` the figure was 0.81.
`CN1CCN(C2=Nc3cc(Cl)ccc3Nc3ccccc32)CC1`: the logP came to 3.23.
Next, `O=C(O)c1ccc(Oc2ccccc2)cc1`: 3.91; `c1ccc2[nH]ncc2c1`: 1.77.
With `O=C(O)c1ccccn1` the figure was 0.72; with `CCc1ccccc1OCC(=O)O`, 2.53; with `O=C(CCCN1CCC(O)(c2ccc(Cl)cc2)CC1)c1ccc(F)cc1`, 3.36.
With `COc1cccc(CC(C)N)c1OC` (configuration not stated) the figure was 1.49; with `Oc1ncnc2[nH]ncc12`, -0.55.
In the case of `CO`, the logP is -0.77.
Next, `CSc1nnc(-c2ccccc2)c(=O)n1N`: 1.66; `N[C@@H](Cc1c[nH]c2ccccc12)C(=O)O`: -1.06; `Nc1cccc([N+](=O)[O-])c1`: 1.37.
In the case of `CCCCc1ccccc1`, the logP came out at 4.38.
With `COc1cc(CCN)cc(OC)c1Br` the figure was 2.03; with `Cc1ccc(C)c2ccccc12`, 4.37.
With `CCOC(=O)C(C#N)=NNc1cc(Cl)cc(Cl)c1`, the logP came to 3.82.
Consider `CCCC`, for which the logP is 2.89.
Next, `NCCc1ccc(O)c(O)c1`: -0.98.
Next, `c1ccsc1`: 1.81.
On to `CCC#N`, for which the logP was found to be 0.16.
With `FC(F)(F)c1ccccc1` the figure was 3.01.
The compound `CCOc1ccccc1O` had a logP of 1.68.
Next, `CCCNC(C)CC` (configuration not stated): 1.91; `Clc1nc2c(Cl)c(Cl)c(Cl)c(Cl)c2[nH]1`: 4.53; `CCCCNCCCC`: 2.83.
With `COC(=O)c1cccnc1` the figure was 0.83; with `O=NN1CCOCC1`, -0.44; with `O=C1CCCC(=O)N1`, 1.9.
On to `NC(=O)CCCCc1ccccn1`, for which the logP was found to be 0.38.
